Active and inactive are the calls of the source.

Assay [1] has as its target Long-chain-fatty-acid--AMP ligase FadD28 (Mycobacterium tuberculosis, UniProt P9WQ59). Description: Fluorescence polarization aasay to screen for inhibitors that compete for the binding of FadD28 to a bisubstrate Measured in Biochemical System Using Plate Reader - 2147-01_Inhibitor_Dose_CherryPick_Activity. It counts as functional, Mycobacterium tuberculosis H37Rv.
The target of assay [2] is Dual specificity tyrosine-phosphorylation-regulated kinase 1A (Rattus norvegicus, UniProt Q63470). It is filed as biochemical, Homo sapiens.
The nature of assay [3]: PAX2 cell-based inhibition, dose response, selectivity assay for PAX8 inhibitor project, plate reader, dry powder samples (AID 743048).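 Further: HEK293 cells carrying a WT1 promoter luciferase reporter driven by expressed Pax2; potency is for inhibition of Pax2 driven reporter signal.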 It is filed as functional.
Assay [4] is described as follows: P. falciparum Dd2 growth inhibitors, dose response, SYBR Green, dry powder samples (AID 1159566).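 Further: potency for growth inhibition with lower SYBR green DNA signal.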 It counts as functional, cell-based.
Assay [5] in a line: cytotoxicity in OVCAR8 ovarian cancer cells, dose response, PAX8 project, cell-based, plate reader, dry powder samples (AID 743197). It counts as functional. Conditions: OVCAR-8.
The target in the next assay is Paired box protein Pax-8 (Homo sapiens, UniProt Q06710). Description: inhibitors of PAX8-driven TPO luciferase reporter, dose response, RMG-I cells, cherry-pick (AID 687027).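 Further: luciferase reporter driven by Pax8 target thyroperoxidase promoter measured by SteadyGlo luminescence.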 It counts as functional, cell-based.
Paired box protein Pax-8, sequence (Q06710 whole entry): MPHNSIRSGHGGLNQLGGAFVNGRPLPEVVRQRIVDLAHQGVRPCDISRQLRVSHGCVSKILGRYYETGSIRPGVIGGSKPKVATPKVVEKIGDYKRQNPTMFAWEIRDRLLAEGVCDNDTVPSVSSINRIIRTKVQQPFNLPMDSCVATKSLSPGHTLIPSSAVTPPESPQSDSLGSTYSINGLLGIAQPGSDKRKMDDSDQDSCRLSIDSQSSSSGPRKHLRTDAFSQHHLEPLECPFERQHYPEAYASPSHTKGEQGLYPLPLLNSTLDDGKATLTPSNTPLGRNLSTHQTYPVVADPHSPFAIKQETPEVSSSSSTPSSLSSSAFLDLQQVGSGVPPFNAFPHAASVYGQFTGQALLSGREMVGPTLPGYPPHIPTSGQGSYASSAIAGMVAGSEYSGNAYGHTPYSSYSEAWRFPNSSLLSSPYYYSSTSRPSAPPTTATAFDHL
The nature of assay [6]: cytotoxicity dependent on PAX8, dose response, cell-based, plate reader, dry powder (AID 743049). It counts as functional.
Assay [7] is described as follows: PAX5 activity inhibitors, dose response, selectivity assay for PAX8 inhibitor project, cell-based, plate reader, dry powder samples (AID 743047).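 Further: HEK293 cells carrying a Pax5 driven CD19 promoter luciferase reporter; potency of inhibitors that lower reporter luminescence.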 It is filed as functional.
Assay [8] is described as follows: P. falciparum Dd2 growth inhibitors, dose response, SYBR Green, cherry-picked samples (AID 1159567). It counts as functional, cell-based.
Assay [9] is described as follows: P. falciparum 3D7-ScDHODH growth inhibitors, dose response, SYBR Green, dry powder samples (AID 1159570).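 Further: parasite growth measured after 72 hours of compound exposure.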 It counts as functional, cell-based.
Assay [10] can be described thus: cytotoxicity in COV362 ovarian cancer cells, dose response, cytotoxicity control for PAX8 inhibitor project, cell-based, plate reader, dry powder, SA12 (AID 743144). It counts as functional.
The nature of assay [11]: HepG2 cell cytotoxicity, dose response, cytotoxicity control, plate reader, dry powder samples (AID 1159569).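 Further: inhibitor potency with signal falling toward the positive control level.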 It is filed as functional, cell-based.
The nature of assay [12]: P. falciparum ATP4 D1247Y mutant growth inhibitors, dose response, NITD609-resistant line, SYBR Green, dry powder (AID 1159571).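 Further: parasites synchronized at ring stage by sorbitol before testing.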 It is filed as functional, cell-based.
Assay [13] in a line: A2780 ovarian cancer cell cytotoxicity, dose response, cytotoxicity control, plate reader, dry powder samples (AID 743046). It counts as functional, cell-based.
Assay [14] can be described thus: NIH:OVCAR-3 ovarian cancer cell cytotoxicity, dose response, PAX8 inhibitor project, plate reader, dry powder samples (AID 743044). It counts as functional, cell-based.
The nature of assay [15]: IOSE-T80 ovarian epithelial cell cytotoxicity, dose response, cytotoxicity control for PAX8 inhibitor project, plate reader, dry powder samples (AID 743045). It counts as functional, cell-based.
A short description of assay [16]: IGROV1 ovarian cancer cell cytotoxicity, dose response, PAX8 inhibitor project, plate reader, dry powder samples (AID 743043). It counts as functional, cell-based. Conditions: IGROV-1.
Assay [17] is described as follows: Late stage assay provider results from the probe development effort to identify selective inhibitors of heat shock protein 90 (HSP90): Absorbance-based cell proliferation assay in MCF7 cells. It counts as functional.
Assay [18] in a line: Late stage assay provider results from the probe development effort to identify selective inhibitors of heat shock protein 90 (HSP90): Absorbance-based cell proliferation assay in SKBR3 cells. It is filed as functional. Conditions: SK-BR-3.
In another assay the target is Protein Wnt-3a (Mus musculus, UniProt P27467). As to the kind of experiment: SAR analysis of small molecule antagonists of Gli-SUFU in a Wnt3a luminescent reporter assay. It counts as functional. For orientation: A reporter such as luciferase makes a cellular process visible.
Protein Wnt-3a, sequence (P27467 whole entry): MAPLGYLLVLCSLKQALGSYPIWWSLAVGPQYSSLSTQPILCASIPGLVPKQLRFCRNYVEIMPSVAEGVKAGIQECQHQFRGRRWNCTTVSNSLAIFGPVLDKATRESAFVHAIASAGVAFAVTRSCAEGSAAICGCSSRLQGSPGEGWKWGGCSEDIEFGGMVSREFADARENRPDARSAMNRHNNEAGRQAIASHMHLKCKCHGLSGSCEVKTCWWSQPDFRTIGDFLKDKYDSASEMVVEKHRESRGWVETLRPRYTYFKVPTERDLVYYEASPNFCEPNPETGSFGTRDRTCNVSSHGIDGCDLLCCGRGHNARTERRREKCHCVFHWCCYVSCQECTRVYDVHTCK
Assay [19] has as its target Glucose-6-phosphate 1-dehydrogenase (Homo sapiens, UniProt P11413). Description: human G6PD enzyme inhibitors, dose response, selectivity assay for P. falciparum G6PD inhibitor project, biochemical, fluorescence (AID 504792). It is filed as functional.
A short description of assay [20]: HeLa cell cytotoxicity, dose response, cytotoxicity control for MgcRacGAP inhibitor project (AID 624300). It is filed as functional.
The target of assay [21] is T1, Rac GTPase-activating protein 1 (Homo sapiens, UniProt Q9H0H5).
T1 sequence (Q9H0H5 whole entry): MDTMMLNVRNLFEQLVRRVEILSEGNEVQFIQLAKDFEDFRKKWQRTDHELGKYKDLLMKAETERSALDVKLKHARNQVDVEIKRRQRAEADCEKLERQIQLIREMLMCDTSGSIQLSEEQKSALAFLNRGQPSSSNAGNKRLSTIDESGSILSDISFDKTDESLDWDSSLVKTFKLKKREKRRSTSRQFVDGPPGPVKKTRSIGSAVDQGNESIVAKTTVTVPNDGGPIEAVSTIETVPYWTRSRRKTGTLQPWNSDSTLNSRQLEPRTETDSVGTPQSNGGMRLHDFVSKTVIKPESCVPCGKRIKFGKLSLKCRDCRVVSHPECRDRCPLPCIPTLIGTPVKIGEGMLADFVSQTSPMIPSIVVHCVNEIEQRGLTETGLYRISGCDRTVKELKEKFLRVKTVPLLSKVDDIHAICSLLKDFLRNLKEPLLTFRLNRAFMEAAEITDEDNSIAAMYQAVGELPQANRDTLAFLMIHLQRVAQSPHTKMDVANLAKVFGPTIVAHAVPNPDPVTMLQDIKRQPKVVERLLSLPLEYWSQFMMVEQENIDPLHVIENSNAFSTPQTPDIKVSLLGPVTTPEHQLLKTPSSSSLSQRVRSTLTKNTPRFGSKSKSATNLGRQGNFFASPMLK
As to the kind of experiment: MgcRacGAP GTPase-activating activity inhibitors, confirmation, biochemical, ADP Hunter fluorescence, primary and confirmatory (AID 624330). It is filed as functional.

Assay [22] deals with SWI/SNF-related matrix-associated actin-dependent regulator of chromatin subfamily A member 2 (Homo sapiens, UniProt P51531). Description: Luminescence-based cell-based high throughput dose response assay to identify activators of the function of SWI/SNF related, matrix associated, actin dependent regulator of chromatin, subfamily a, member 2 (SMARCA2, BRM). It counts as functional.
SWI/SNF-related matrix-associated actin-dependent regulator of chromatin subfamily A member 2, sequence (P51531 whole entry): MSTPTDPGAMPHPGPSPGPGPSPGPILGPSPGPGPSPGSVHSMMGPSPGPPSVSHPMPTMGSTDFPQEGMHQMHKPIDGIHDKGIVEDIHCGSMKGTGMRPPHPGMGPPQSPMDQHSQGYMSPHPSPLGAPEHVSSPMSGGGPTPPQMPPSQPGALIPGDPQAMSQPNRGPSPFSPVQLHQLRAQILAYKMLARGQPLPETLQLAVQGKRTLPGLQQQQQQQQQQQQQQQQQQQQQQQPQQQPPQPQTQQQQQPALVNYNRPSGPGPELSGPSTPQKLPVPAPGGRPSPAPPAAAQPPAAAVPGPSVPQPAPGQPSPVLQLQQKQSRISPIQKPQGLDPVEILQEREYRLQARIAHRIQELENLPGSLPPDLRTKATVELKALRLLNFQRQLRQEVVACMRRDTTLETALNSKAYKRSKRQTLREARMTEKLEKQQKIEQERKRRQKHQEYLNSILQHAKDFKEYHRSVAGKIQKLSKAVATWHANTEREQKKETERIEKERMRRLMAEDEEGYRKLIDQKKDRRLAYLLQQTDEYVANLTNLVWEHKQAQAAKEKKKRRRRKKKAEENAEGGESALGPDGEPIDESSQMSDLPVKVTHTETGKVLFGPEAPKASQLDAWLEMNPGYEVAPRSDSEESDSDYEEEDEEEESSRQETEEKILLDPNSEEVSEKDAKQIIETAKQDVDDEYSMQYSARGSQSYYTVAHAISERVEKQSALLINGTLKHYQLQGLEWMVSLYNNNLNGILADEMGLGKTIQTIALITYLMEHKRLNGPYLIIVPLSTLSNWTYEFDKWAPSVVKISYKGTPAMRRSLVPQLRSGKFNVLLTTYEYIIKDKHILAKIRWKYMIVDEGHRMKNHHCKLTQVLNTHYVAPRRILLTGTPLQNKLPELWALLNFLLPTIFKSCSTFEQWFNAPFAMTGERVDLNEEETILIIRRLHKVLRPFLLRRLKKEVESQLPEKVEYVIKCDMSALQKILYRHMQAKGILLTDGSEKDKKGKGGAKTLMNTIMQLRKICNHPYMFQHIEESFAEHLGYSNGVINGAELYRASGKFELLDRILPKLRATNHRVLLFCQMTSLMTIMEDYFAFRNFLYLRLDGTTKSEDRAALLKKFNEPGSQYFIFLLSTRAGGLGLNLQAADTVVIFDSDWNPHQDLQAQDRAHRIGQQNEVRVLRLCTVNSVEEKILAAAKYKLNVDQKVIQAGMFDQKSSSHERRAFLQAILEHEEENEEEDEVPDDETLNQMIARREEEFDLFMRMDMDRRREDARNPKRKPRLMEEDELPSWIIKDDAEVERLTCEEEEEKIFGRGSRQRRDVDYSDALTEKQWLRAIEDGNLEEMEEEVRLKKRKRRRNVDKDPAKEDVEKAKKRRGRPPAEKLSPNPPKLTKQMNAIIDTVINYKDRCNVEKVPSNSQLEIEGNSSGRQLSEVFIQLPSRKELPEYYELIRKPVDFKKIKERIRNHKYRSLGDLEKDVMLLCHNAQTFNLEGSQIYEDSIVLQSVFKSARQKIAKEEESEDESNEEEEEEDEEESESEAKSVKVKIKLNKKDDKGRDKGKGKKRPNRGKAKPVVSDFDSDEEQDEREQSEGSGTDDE

In a further assay the target is Cytochrome P450 2C19 (Homo sapiens, UniProt P33261). Description: Cytochrome panel assay with activity outcomes. Panel member name: p450-cyp2c19 Compounds with AC50 equal or less than 10 uM are considered active. Conditions: read-out: AC50. It is filed as functional.
Cytochrome P450 2C19, sequence (P33261 whole entry): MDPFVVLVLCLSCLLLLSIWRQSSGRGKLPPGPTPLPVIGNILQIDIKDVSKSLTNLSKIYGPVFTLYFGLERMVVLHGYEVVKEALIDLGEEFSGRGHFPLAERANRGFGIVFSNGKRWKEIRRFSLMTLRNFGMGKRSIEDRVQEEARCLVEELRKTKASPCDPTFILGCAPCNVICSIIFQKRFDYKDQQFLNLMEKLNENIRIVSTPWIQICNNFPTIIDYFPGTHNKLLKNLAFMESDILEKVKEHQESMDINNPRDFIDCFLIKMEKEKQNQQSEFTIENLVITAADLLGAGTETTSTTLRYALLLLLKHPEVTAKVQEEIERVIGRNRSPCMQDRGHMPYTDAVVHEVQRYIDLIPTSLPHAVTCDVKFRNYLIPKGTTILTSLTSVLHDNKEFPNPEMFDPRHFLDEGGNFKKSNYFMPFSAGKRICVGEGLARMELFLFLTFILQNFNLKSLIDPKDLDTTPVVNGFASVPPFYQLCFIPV
Assay [23] concerns the target T2, DNA repair protein RAD52 homolog (Homo sapiens, UniProt P43351).
T2 sequence (P43351 whole entry): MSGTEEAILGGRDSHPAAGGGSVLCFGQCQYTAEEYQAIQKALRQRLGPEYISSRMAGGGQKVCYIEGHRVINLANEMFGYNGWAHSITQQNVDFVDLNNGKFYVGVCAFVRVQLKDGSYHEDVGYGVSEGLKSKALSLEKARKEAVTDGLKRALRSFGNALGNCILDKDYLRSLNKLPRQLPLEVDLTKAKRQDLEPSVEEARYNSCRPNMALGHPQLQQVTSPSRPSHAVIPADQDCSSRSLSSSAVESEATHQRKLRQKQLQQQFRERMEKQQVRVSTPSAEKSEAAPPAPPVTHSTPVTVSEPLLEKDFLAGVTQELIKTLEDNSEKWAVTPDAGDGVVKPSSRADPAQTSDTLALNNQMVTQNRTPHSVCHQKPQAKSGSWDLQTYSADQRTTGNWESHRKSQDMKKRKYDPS
It counts as functional, biochemical.

A short description of assay [24]: Counterscreen for activators of the function of SWI/SNF related, matrix associated, actin dependent regulator of chromatin, subfamily a, member 2 (SMARCA2, BRM): Luminescence-based cell-based high throughput dose response assay to identify non-selective compounds using the VP16 reporter assay. It counts as functional.
The target of another assay is Kallikrein-7 (Homo sapiens, UniProt P49862). Description: Fluorescence Intensity-based biochemical primary high throughput dose response assay to identify activators of kallikrein-7 (K7) zymogen.
Kallikrein-7, sequence (P49862 whole entry): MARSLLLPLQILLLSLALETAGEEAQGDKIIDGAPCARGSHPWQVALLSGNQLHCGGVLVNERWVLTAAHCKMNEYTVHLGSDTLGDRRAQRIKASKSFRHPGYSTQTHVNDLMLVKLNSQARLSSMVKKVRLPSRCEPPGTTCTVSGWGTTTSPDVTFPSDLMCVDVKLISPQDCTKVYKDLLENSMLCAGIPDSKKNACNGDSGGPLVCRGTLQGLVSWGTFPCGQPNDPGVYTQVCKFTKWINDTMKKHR

Long-chain-fatty-acid--AMP ligase FadD28, sequence (P9WQ59 whole entry): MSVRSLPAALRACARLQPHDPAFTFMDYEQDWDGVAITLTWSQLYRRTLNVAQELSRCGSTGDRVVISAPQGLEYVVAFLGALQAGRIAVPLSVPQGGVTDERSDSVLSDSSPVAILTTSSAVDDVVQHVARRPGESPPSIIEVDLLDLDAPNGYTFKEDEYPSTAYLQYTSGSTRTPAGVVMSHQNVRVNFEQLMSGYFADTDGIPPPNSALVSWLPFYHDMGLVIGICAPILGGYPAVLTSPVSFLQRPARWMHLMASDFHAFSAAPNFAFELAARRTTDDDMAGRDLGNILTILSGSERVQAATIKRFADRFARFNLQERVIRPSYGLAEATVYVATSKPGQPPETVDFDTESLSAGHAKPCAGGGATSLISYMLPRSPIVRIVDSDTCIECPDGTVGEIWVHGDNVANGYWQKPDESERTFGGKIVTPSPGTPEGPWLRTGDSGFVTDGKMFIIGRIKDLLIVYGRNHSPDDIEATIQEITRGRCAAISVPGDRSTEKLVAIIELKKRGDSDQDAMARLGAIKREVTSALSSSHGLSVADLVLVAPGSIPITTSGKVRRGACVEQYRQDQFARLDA
Glucose-6-phosphate 1-dehydrogenase, sequence (P11413 whole entry): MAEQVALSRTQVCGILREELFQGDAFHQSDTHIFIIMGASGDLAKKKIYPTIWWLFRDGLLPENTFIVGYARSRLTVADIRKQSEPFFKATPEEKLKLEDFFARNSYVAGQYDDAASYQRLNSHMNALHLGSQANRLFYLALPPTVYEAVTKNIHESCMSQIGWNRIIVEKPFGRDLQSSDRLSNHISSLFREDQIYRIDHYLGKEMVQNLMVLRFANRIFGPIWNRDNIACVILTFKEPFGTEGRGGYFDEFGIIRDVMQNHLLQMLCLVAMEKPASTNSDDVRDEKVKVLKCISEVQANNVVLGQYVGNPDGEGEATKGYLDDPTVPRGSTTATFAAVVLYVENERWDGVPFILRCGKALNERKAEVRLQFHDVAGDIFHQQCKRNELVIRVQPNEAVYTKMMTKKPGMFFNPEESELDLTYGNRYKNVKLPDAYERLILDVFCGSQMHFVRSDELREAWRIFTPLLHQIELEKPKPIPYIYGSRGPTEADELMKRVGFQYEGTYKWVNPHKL

As for `COc1cccc(/C=N/n2c(S)nnc2C2CCCCC2)c1O`, the half-maximal activity concentration (AC50) (in general, the concentration at which the activity in the assay is half-maximal) in assay [1] was 16.8 µM (active); in assay [2], 6.14 µM (active).
On to `COc1cccc(C#Cc2ccc([C@@H]3[C@@H](C#N)N(C(=O)C4CCCCC4)[C@H]3CO)cc2)c1`, for which the AC50 in assay [3] is 46.5 µM (active); in [4], 0.422 µM (active); in [5], > 70 µM (inactive); on Paired box protein Pax-8, 8.61 µM (active); in assay [6] it was 15.9 µM (active); in assay [7] it was 5.72 µM (active). Further, the AC50 in [8] was 0.865 µM (active); in assay [9], 1.11 µM (active); in assay [10], > 70 µM (inactive); in assay [11], 26.5 µM (active); in assay [12] it was 1.13 µM (active).
As to `COc1ccc(-c2ccc3c(c2)[C@H]2[C@H](CCN2S(=O)(=O)c2ccc(OC)cc2)[C@H](CO)N3C)cc1`, the AC50 is 1.52 µM (active) in assay [13]; 7.31 µM (active) in assay [5]; 7.21 µM (active) on Paired box protein Pax-8; 3.15 µM (active) in assay [14]; 6.56 µM (active) in assay [15]; 5.8 µM (active) in assay [16].
With `CCCCCCCCOc1ccc(NC(=O)c2coc(=O)c(Br)c2)cc1`, the IC50 (in general, the concentration that inhibits the measured activity by half) is 12.9 µM (inactive) in assay [17] and 13.5 µM (inactive) in [18].
With `COc1cc(OC)cc(C(=O)Nc2cc(N3CCCC3)ncn2)c1`, the IC50 at Protein Wnt-3a was > 21.8 µM (inactive).
For the compound `CCN(CC)c1cc(NC(=O)c2ccc(Br)o2)ncn1`, the IC50 at Protein Wnt-3a was > 21.8 µM (inactive).
With `O=C(NCc1cccnc1)c1coc(=O)c(Br)c1`, the IC50 was 3.5 µM (active) in assay [17] and 12.8 µM (inactive) in assay [18].
With `COc1ccc2nc3cc(Cl)ccc3c(Nc3ccc(O)c(CN4CCN(C)CC4)c3)c2c1`, the results for the IC50 in assay [19] and in assay [21] were > 80 µM (inactive) and 45.4 µM (active), respectively. In assay [20], the CC50 (usually the concentration at which the toxic effect on the cells reaches its halfway point) was 25.6 µM (active). Also, the EC50 (as a rule, the concentration at which the effect is half-maximal) in [22] was > 91.1 µM (inactive); in [24] it was > 91.1 µM (inactive); on Kallikrein-7 it was > 69.5 µM (inactive). Further, the AC50 on Cytochrome P450 2C19 is 2.51 µM (inconclusive); in assay [2] it was 7.7 µM (active); in assay [23], < 0.15 µM (active).

The record behind these values is ChEMBL document CHEMBL1201862, “PubChem BioAssay data set” (2004).
